The results in this text go back to ChEMBL document CHEMBL1126767, “Three-dimensional quantitative structure-activity relationship of angiotesin-converting enzyme and thermolysin inhibitors. II. A comparison of CoMFA models incorporating molecular orbital fields and desolvation free energies based on active-analog and complementary-receptor-field alignment rules” (J Med Chem, 1993).

SMILES strings stand for the structures. Square brackets hold non-standard residues; d marks the D form. Peptide text beside a SMILES is read from it. ξ: configuration not given here. ξC = NC(CS)C(=O)O

The target in this test is Angiotensin-converting enzyme (Homo sapiens, UniProt P12821). The experiment in a line: Inhibitory activity against angiotensin converting enzyme (ACE). In kind it is functional.
As to `NCCCCC(NC(=O)OCc1ccccc1)C(=O)N[C@H](CCC(=O)N1c2ccccc2C[C@H]1C(=O)O)C(=O)O` (some centres undefined), the IC50 is 2.51 µM.
With `NCCCC[C@H](OP(=O)(O)CCCCc1ccccc1)C(=O)N1C[C@H](Sc2ccccc2)C[C@H]1C(=O)O`, the IC50 is 0.000776 µM.
In the case of `C[C@H](NCC(=O)O)C(=O)N1CCC[C@H]1C(=O)O` it was 2.4 µM.
Compound `C[C@@H]1CCCC(NC(CCc2ccccc2)C(=O)O)C(=O)N1CC(=O)O` (some centres undefined) showed a concentration for half-maximal inhibition (IC50) of 0.00302 µM.
Next, `C[C@H](CC(=O)O)C(=O)N1CCC[C@H]1C(=O)O`: 10.2 µM.
Regarding `C[C@H](NC(CCc1ccccc1)P(=O)(O)O)C(=O)N1CCC[C@H]1C(=O)O` (some centres undefined), the IC50 is 0.0513 µM. Compared with the last compound, the IC50 is about 200-fold lower.
In the case of `O=C(O)[C@@H]1CCCN1C(=O)CCP(=O)(O)O` it was 47.9 µM.
Next, `O=C(O)[C@@H]1CCC(=O)N1CCCS`: 646 µM; `NC(Cc1ccccc1)C(=O)N[C@H](CCC(=O)N1[C@H](C(=O)O)C[C@@H]2CCCC[C@@H]21)C(=O)O` (some centres undefined): 0.1 µM; `O=C(CCS)N[C@@H](CS)C(=O)O`: 67.6 µM.
In the case of `O=C(O)[C@@H]1C=CCn2c(=O)n(CS)c(=O)n21` it was 0.708 µM.
With `O=C(NC(Cc1ccccc1)C(=O)N[C@H](CCC(=O)N1c2ccccc2C[C@H]1C(=O)O)C(=O)O)OCc1ccccc1` (some centres undefined), the midpoint of inhibition, the IC50, lay at 0.000251 µM.
Next, `CSC1(SC)C[C@@H](C(=O)O)N(C(=O)[C@H](CCCCN)OP(=O)(O)CCCCc2ccccc2)C1`: 0.00257 µM.
In the case of `CC(S)C(=O)N[C@@H](CS)C(=O)O` (stereo in doubt; form 1) it was 537 µM; in that of `NCCC[C@H](NC(CCc1ccccc1)C(=O)O)C(=O)N1CCC[C@H]1C(=O)O` (some centres undefined), 0.00219 µM.
Consider `O=C(O)CCC(=O)NCC(=O)O`, for which the IC50 was 2000 µM.
`CC(C)(S)C(=O)N[C@@H](CS)C(=O)O` [BUCILLAMINE] gave an IC50 of 7240 µM. This IC50 is about 3.6-fold higher than that of the compound before.
In the case of `CC(C)[C@H](N)C(=O)N1CCC[C@H]1C(=O)O` (H-Val-Pro-OH) it was 417 µM; in that of `O=C(O)[C@@H]1CCCN1C(=O)C1CCC1S` (some centres undefined), 0.049 µM; in that of `C[C@H](NC(CCCNC(=O)OCc1ccccc1)C(=O)O)C(=O)N1CCC[C@H]1C(=O)O` (some centres undefined), 0.00288 µM.
In the case of `O=C(O)[C@@H]1CCCN1C(=O)CCS` (stereo in doubt; 56) it was 17 µM.
In the case of `C[C@H](CCC(=O)O)C(=O)N1CCC[C@H]1C(=O)O` it was 4.9 µM; in that of `O=C(CCS)N[C@@H](Cc1c[nH]c2ccccc12)C(=O)O` (stereo in doubt; form 1), greater than 1000 µM.
The compound `C[C@H](CC(CCc1ccccc1)C(=O)O)C(=O)N1c2ccccc2C[C@H]1C(=O)O` (some centres undefined) had an IC50 of 0.00479 µM.
`NCCCC[C@H](OP(=O)(O)CCCCc1ccccc1)C(=O)N1C[C@@H](c2ccccc2)C[C@H]1C(=O)O` showed an IC50 of 0.000132 µM.
For the compound `O=C(O)[C@@H]1CC2(CN1C(=O)CP(=O)(O)CCCCc1ccccc1)SCCS2`, the IC50 is 0.00398 µM.
As to `C[C@@H](N)C(=O)N[C@@H](Cc1ccccc1)C(=O)O` (stereo in doubt; 52), the IC50 was 191 µM.
As for `O=C(NC(CCc1ccccc1)P(=O)(O)CC(=O)N1CCC[C@H]1C(=O)O)c1ccccc1` (some centres undefined), the IC50 is 0.0724 µM.
On to `O=C(O)[C@@H]1CCCN1C(=O)CP(=O)(O)O`, for which the IC50 was 8.32 µM.
For the compound `NCCCCC(N)C(=O)N[C@H](CCC(=O)N1[C@H](C(=O)O)C[C@@H]2CCCC[C@@H]21)C(=O)O` (some centres undefined), half-maximal inhibition (IC50) was put at 0.012 µM.
In the case of `O=C(CCS)OC(Cc1ccccc1)C(=O)O` (centres undefined) it was 0.708 µM.
With `C[C@H](NC(CCc1ccccc1)C(=O)O)C(=O)N1CC2CCCCC2[C@H]1C(=O)O` (some centres undefined), 0.00219 µM corresponded to half-maximal inhibition (IC50).
In the case of `NCCCC[C@H](OP(=O)(O)CCCCc1ccccc1)C(=O)N(CC(=O)O)c1ccc2c(c1)OCO2` it was 0.000115 µM; in that of `CC(C)(C)OC(=O)[C@@H]1CCCN1C(=O)CCS`, 38.9 µM; in that of `CS[C@H]1C[C@@H](C(=O)O)N(C(=O)[C@H](CCCCN)OP(=O)(O)CCCCc2ccccc2)C1`, 0.00191 µM.
Next, `CCN(C[C@H](CCc1ccccc1)C(=O)O)C(=O)N1Cc2ccccc2C[C@H]1C(=O)O`: 0.00646 µM; `CC(S)C(=O)N[C@@H](Cc1c[nH]c2ccccc12)C(=O)O` (stereo in doubt; form 1): 0.363 µM; `NC(CS)C(=O)N1CCC[C@H]1C(=O)O` (some centres undefined) (H-[ξC]-Pro-OH): 0.0631 µM.
In turn, `CC(C)(S)C(=O)N[C@@H](Cc1c[nH]c2ccccc12)C(=O)O` gave an IC50 of 38 µM.
Next, `O=C(O)[C@@H]1CCCN2C(=O)C[C@@H](CS)C(=O)N12`: 0.0708 µM; `O=C(N[C@H](CCC(=O)N1CCC[C@H]1C(=O)O)C(=O)O)C1CCCN1C(=O)OCc1ccccc1` (some centres undefined): 2.51 µM.
The compound `NCCCC[C@H](OP(=O)(O)CCCCc1ccccc1)C(=O)N1C[C@H](O)C[C@H]1C(=O)O` gave an IC50 of 0.000871 µM.
As to `COc1ccc(N(CC(=O)O)C(=O)[C@H](CCCCN)OP(=O)(O)CCCCc2ccccc2)cc1OC`, half-maximal inhibition (IC50) required 0.000288 µM.
In the case of `CC(CS)C(=O)N[C@@H](Cc1c[nH]c2ccccc12)C(=O)O` (stereo in doubt) it was 33.1 µM.
Next, `C[C@H](NC(=O)CCC(=O)O)C(=O)O`: 1350 µM; `CN(CC(=O)O)C(=O)CCS`: 3.02 µM.
In the case of `O=C(CS)N[C@@H](Cc1c[nH]c2ccccc12)C(=O)O` it was 0.759 µM; in that of `C[C@H](NP(=O)(O)CCc1ccccc1)C(=O)N1CCC[C@H]1C(=O)O`, 0.00708 µM.
Compound `NCCCC[C@H](OP(=O)(O)CCCCc1ccccc1)C(=O)N1C[C@@H](Cc2ccccc2)C[C@H]1C(=O)O` gave an IC50 of 0.000891 µM.
Next, `NCCCC[C@H](OP(=O)(O)CCCCc1ccccc1)C(=O)N1C[C@H](c2ccccc2)C[C@H]1C(=O)O`: 0.339 µM.
In turn, `CC[C@H](C)[C@H](N)C(=O)N1CCC[C@H]1C(=O)O` (H-Ile-Pro-OH) had an IC50 of 129 µM.
For `O=C(O)[C@@H]1CCCN1C(=O)CCS` (stereo in doubt; 34), it took 0.2 µM to reach half-maximal inhibition (IC50).
For the compound `CC(C)(S)C(=O)N[C@@H](CC(=O)O)C(=O)O`, half-maximal inhibition (IC50) was put at 3470 µM.
On to `O=C(O)C(CCc1ccccc1)N[C@H]1CCN2CCC[C@@H](C(=O)O)N2C1=O` (some centres undefined), for which half-maximal inhibition (IC50) required 0.0562 µM.
For the compound `CCC(C)[C@H](NC(=O)CCC(=O)O)C(=O)O` (some centres undefined), 1050 µM corresponded to half-maximal inhibition (IC50).
Next, `O=C(O)CCC(=O)N[C@@H](Cc1ccccc1)C(=O)O`: 550 µM.
Next, `NCC(=O)N1CCC[C@H]1C(=O)O` [GLYCYL PROLINE] (H-Gly-Pro-OH): 447 µM.
In the case of `O=C(N[C@H](CCC(=O)N1[C@H](C(=O)O)C[C@@H]2CCCC[C@@H]21)C(=O)O)C1CCCN1C(=O)OCc1ccccc1` (some centres undefined) it was 0.0151 µM; in that of `O=C(O)C[C@H](NC(=O)CS)C(=O)O`, 77.6 µM.
For the compound `O=C(O)CCc1cc(O)c2n(c1=O)[C@H](C(=O)O)CC2`, the IC50 is 0.457 µM. Against the preceding compound, the IC50 is about 170-fold lower.
Next, `NCCCC[C@H](OP(=O)(O)CCCCc1ccccc1)C(=O)N1C[C@H](C2CCCCC2)C[C@H]1C(=O)O`: 0.00324 µM; `O=C(O)CCC(=O)CCS`: 2.4 µM; `O=C(CCS)N[C@@H](Cc1c[nH]c2ccccc12)C(=O)O` (stereo in doubt; form 2): 4.57 µM.
Compound `C[C@H](NC(C(=O)O)C1CCCN1C(=O)c1ccccc1)C(=O)N1CCC[C@H]1C(=O)O` (some centres undefined) had an IC50 of 0.00288 µM.

The term IC50 denotes the midpoint of a concentration-inhibition curve. Read a high IC50 as lower potency.
